“Also recorded” adds a separate entry of the source.
Columns and labels:
Assay type in all cases: in vivo, mouse
male CD-1 mice [1] = assay: Gait analysis (Digigait), SG-fed mice; conditions: SG-fed vs control
Source text: (§1) Five-month old male CD-1 mice (30.1-35.7 g, 7.5 cm-8.8 cm) were purchased from Charles River (Wilmington, Mass.). Adult mice were chosen to mimic the mean age of onset of ALS-PDC (Kurland, L. T. (1988a) Trends Neurosci. 11, 51-4; Kurland, L. T., et al. (1994) Amyotrophic lateral sclerosis-parkinsonism-dementia complex on Guam: epidemiologic and etiological perspectives. 109-131). Thirty mice for the SG study were randomly divided into 2 groups (14 control and 16 experimental animals). All animals were housed singly in a virus-free barrier facility in a room maintained at 22° C. under a 12 hour light/dark cycle. The mice were provided ad libitum access to food and water.
(§2) The synthetic SG was mixed with finely ground Purina Chow mouse pellets (Mouse Diet™, Purina) to create the experimental pellets with a SG content of 1000 μg per pellet. Dry materials were blended with a sterile silicon spatula. For every 5 g of standard feed, 2.5 mL of doubly-distilled water (dd)H2O was added and the dough was kneaded and round up into pellets. A single sterol glucoside containing pellet was placed in the feeding tray each morning before the addition of regular mouse chow (ad libitum). All experimental pellets were entirely consumed by the mice each day. Control mice were fed standard mouse chow pellets of identical weight with no additives. SG feeding was conducted daily for 15 weeks and mice were behaviorally monitored until sacrifice at 35 weeks (time point 1) or 52 weeks (time point 2).
Gait analysis: In order to examine spatial and temporal indices of front and hind limb stepping patterns during forward locomotion, mice were required to run on a colorless (PVC and polycarbonate), straight, level, walled motorized belt (Digigait™, treadmill motor: DC, HP; torque 451b-in, Mouse Specifics, Inc., Boston, Mass., USA) set at 30 rpm with a no-flicker light source (90-250 VAC; 25 kHZ, Mouse Specifics, Inc., Boston, Mass., USA) and camera mounted ventrally (relative to the animal) to facilitate continuous ventral plane videography (up to 150 frames per second) of activity. Gait indices were analyzed with the complementary digital imaging software (Digigait™, Mouse Specifics, Inc., Boston, Mass., USA) as per manufacturer's instructions. Briefly, the software converts “paw prints” into a digital signal and generates a temporal record of paw placement and breaks down the digital file into three main parameters: stride duration, swing duration, and stance duration. The stance duration is the period during which the paw of a limb is in contact with the belt surface. The software further subdivides the stance duration into two components: braking duration (the increase in paw contact area over a discrete time interval) and propulsion duration (the decrease in paw contact area over a discrete time interval). The swing duration is the period of time that a paw is not in contact with the belt surface. In addition to these factors, over a dozen additional characteristics, including stance factor, step-sequence pattern, propulsion, and cadence are generated to provide a spreadsheet format report of twenty-five gait indices.

male CD-1 mice [2] = assay: Open field monitoring, SG-fed mice; conditions: SG-fed vs control
Source text: as §1, §2
Open field monitoring: Spontaneous activity in an open field is considered one of the most standardized general measures of motor function (Crawley, 2000). The open field test can also reveal stress response in animals (i.e. defensive burying or thigmotaxis) (Karl et al., Exp Toxicol Pathol., 2003, 55(1):69-83). Open field testing of each animal was conducted every two weeks. A single mouse was placed in one of four round open field arena/tubs (approximately 1 m diameter) to permit the testing of four animals per 5 minute trial. […] This in turn, increases the likelihood of detection of fear-based behavior (Crawley, 2000) and minimizes habituation of the animal to the open field (Crawley, 2000). Testing arenas were cleaned with 70% ethanol before the testing of each animal and with quatricide at the end of each testing session. Movements were recorded using a video camera mounted on the ceiling. Video clips were reviewed and were manually scored or automatically analysed on an automated video tracking software (Ethovision® 3.1, Noldus Information Technologies Inc., Leesburg, Va., USA). Scoring was done on videotaped sessions, rather than in-person at the time of testing to avoid the introduction of confounding variables by the presence of an observer in close proximity to the mice (Crawley, 2000).

male CD-1 mice [3] = assay: Leg extension reflex test, SG-fed mice
Source text: as §1
The synthetic SG was mixed with finely ground Purina Chow mouse pellets (Mouse Diet™, Purina) to create the experimental pellets with a SG content of 1000 μg per pellet. Dry materials were blended with a sterile silicon spatula. For every 5 g of standard feed, 2.5 mL of doubly-distilled water (dd)H2O was added and the dough was kneaded and round up into pellets. […] SG feeding was conducted daily for 15 weeks and mice were behaviorally monitored until sacrifice at 35 weeks (time point 1) or 52 weeks (time point 2).
Leg extension reflex test: The leg extension reflex test was used as a measure of motor neuron dysfunction (Barneoud et al., 1999). […] The leg extension reflex was measured three times per week in each animal. […]

Question: How did the Forelimb braking (male CD-1 mice [1]; Time-point 1 (35 wk)) turn out when `CC[C@H](/C=C/[C@@H](C)[C@H]1CC[C@H]2[C@@H]3CC=C4C[C@@H](O[C@@H]5O[C@H](CO)[C@@H](O)[C@H](O)[C@H]5O)CC[C@]4(C)[C@H]3CC[C@]12C)C(C)C` [SG, Stigmasterol β-D-Glucopyranoside] was run?
Answer: Its Forelimb braking is “Forelimb braking (ns)”.

Question: And the Forelimb propulsion (male CD-1 mice [1]; Time-point 1 (35 wk))?
Answer: Its Forelimb propulsion is “Forelimb propulsion (ns)”.

Question: What about the Forelimb stance width (male CD-1 mice [1]; Time-point 1 (35 wk)) of the same compound?
Answer: The Forelimb stance width was “Forelimb stance width (ns)”.

Question: And the Forelimb stride length (male CD-1 mice [1]; Time-point 1 (35 wk))?
Answer: Its Forelimb stride length is “Forelimb stride length (ns)”.

Question: And the Hind limb braking (male CD-1 mice [1]; Time-point 1 (35 wk))?
Answer: Its Hind limb braking is “Hind limb braking (ns)”.

Question: What about the Hind limb propulsion (male CD-1 mice [1]; Time-point 1 (35 wk)) of the same compound?
Answer: Its Hind limb propulsion is “Hind limb propulsion (ns)”.

Question: And the “Hind limb stance width” value (male CD-1 mice [1]; Time-point 1 (35 wk))?
Answer: The value was “Hind limb stance width (ns)”.

Question: What about the “Hind limb stride frequency” value (male CD-1 mice [1]; Time-point 1 (35 wk)) of the same compound?
Answer: Its value is “Hind limb stride frequency (ns)”.

Question: And the “Hind limb stride length” value (male CD-1 mice [1]; Time-point 1 (35 wk))?
Answer: Its value is “Hind limb stride length (ns)”.

Question: And the Forelimb braking (male CD-1 mice [1]; Time-point 2 (52 wk))?
Answer: The Forelimb braking was “Forelimb braking* (*p < 0.05)”.

Question: What about the Forelimb propulsion (male CD-1 mice [1]; Time-point 2 (52 wk)) of the same compound?
Answer: Its Forelimb propulsion is “Forelimb propulsion* (*p < 0.05)”.

Question: What about the Hind limb braking (male CD-1 mice [1]; Time-point 2 (52 wk)) of the same compound?
Answer: The Hind limb braking was “Hind limb braking* (*p < 0.05)”.

Question: What about the Hind limb propulsion (male CD-1 mice [1]; Time-point 2 (52 wk)) of the same compound?
Answer: Its Hind limb propulsion is “Hind limb propulsion* (*p < 0.05)”.

Question: What about the “Hind limb stride frequency” value (male CD-1 mice [1]; Time-point 2 (52 wk)) of the same compound?
Answer: Its value is “Hind limb stride frequency* (*p < 0.05)”.

Question: What about the Total distance moved (male CD-1 mice [2]; Time-point 1 (35 wk)) of the same compound?
Answer: The Total distance moved was “Total distance moved (ns)”.

Question: What about the “Total distance to zone border” value (male CD-1 mice [2]; Time-point 1 (35 wk)) of the same compound?
Answer: Its value is “Total distance to zone border (ns)”.

Question: What about the Total turn angle (male CD-1 mice [2]; Time-point 1 (35 wk)) of the same compound?
Answer: Its Total turn angle is “Total turn angle (ns)”.

Question: And the “Total distance to zone border” value (male CD-1 mice [2]; Time-point 2 (52 wk))?
Answer: The value was “Total distance to zone border* (*p < 0.05)”.

Question: And the Leg extension (male CD-1 mice [3]; SG-fed vs control, Time-point 2 (52 wk))?
Answer: The Leg extension was “Leg extension* (*p < 0.05)”.

Question: What about the “Leg extension reflex test performance (score 0-4)” value (male CD-1 mice [3]; SG-fed, duration of study) of the same compound?
Answer: Its value is “decreased; also recorded: steady decline in performance”.
